# Measurements taken from ChEMBL document CHEMBL1150469, “The conserved acid binding domain model of inhibitors of protein phosphatases 1 and 2A: Molecular modelling aspects” (Bioorg Med Chem Lett, 1993).
# How the values were obtained:
# Mus musculus [1] = species: Mus musculus; assay: Tested for inhibition of specific [3H]- okadaic acid binding to the cytosolic fraction of mouse skin; assay type: functional
# Mus musculus [2] = species: Mus musculus; assay: Tested for intra peritoneal dose at which compound dose not show toxicity in mouse; assay type: functional, organism-based
# Mus musculus [3] = species: Mus musculus; assay: Tested for inhibition of specific [3H]- okadaic acid binding to the cytosolic fraction of mouse liver.; assay type: functional
# Mus musculus [4] = species: Mus musculus; assay: Tested for inhibition of specific [3H]- okadaic acid binding to the cytosolic fraction of mouse skin.; assay type: functional
SMILES,ED50 (Mus musculus [1]) [nM],DOSE (Mus musculus [2]) [mg/kg],ED50 (Mus musculus [3]) [nM],ED50 (Mus musculus [4]) [nM]
C=C1C(=O)N[C@H](C)C(=O)N[C@@H](CC(C)C)C(=O)N[C@@H](C(=O)O)[C@H](C)C(=O)N[C@@H](CCCNC(=N)N)C(=O)N[C@@H](/C=C/C(C)=C/[C@H](C)[C@H](Cc2ccccc2)OC)[C@H](C)C(=O)N[C@@H](C(=O)O)CCC(=O)N1C (stereo in doubt; form 1),68,–,–,–
C=C1C(=O)N[C@H](C)C(=O)N[C@@H](CC(C)C)C(=O)N[C@@H](C(=O)O)[C@H](C)C(=O)N[C@@H](CCCNC(=N)N)C(=O)N[C@@H](/C=C/C(C)=C/[C@H](C)[C@H](Cc2ccccc2)OC)[C@H](C)C(=O)N[C@@H](C(=O)O)CCC(=O)N1C (stereo in doubt; form 2),8,1,1.3,–
COC[C@@H]([C@H](O)[C@H](O)C(=O)NCC[C@H](C)c1nc(/C=C/C[C@@H]2O[C@]3(C[C@@H](O)[C@@H]2C)O[C@H]([C@H](C[C@H](O)[C@H](C)[C@H](O)[C@H](C)/C=C(C)/C(C)=C/C=C/C(C)=C\C#N)OC)[C@H](OP(=O)(O)O)C3(C)C)co1)N(C)C [CALYCULIN A],2.8,–,–,–
C=C1[C@@H](O)[C@@H]2O[C@]3(CC[C@H](/C=C/[C@@H](C)[C@@H]4CC(C)=C[C@@]5(O[C@H](C[C@@](C)(O)C(=O)O)CC[C@H]5O)O4)O3)CC[C@H]2O[C@@H]1[C@@H](O)C[C@H](C)[C@H]1O[C@@]2(CCCCO2)CC[C@H]1C [OKADAIC ACID],–,–,3.2,2.8
